≈ marks a conversion by molar mass, not a printed value. One block for each molecule: values may come before it.
Key:
[1] = Microsomal stability; assay type: in vitro ADME; conditions: pH 7.4; mouse liver microsomes; major metabolite the parent alcohol
Method: In a 96 well polypropylene plate, 10 μM compound is prepared in 100 mM KPO4 buffer pH 7.4, 5 mM MgCl2, 25 μg/ml Alamethicin, 1 mg/ml (protein) liver microsomes (mouse) and a final DMSO concentration of 0.1% in 100 μl in duplicate. The plate is pre-incubated at 37° C. for 10 minutes after which reactions are initiated by the addition of NADPH and UDPGA to a final concentration of 1 mM and 5 mM respectively. Reactions are incubated at 37° C. and terminated by the addition of 100 μl DMSO at 0, 10, 30 and 60 minutes. Samples of 100 μl are withdrawn and added to 50 μl ice cold methanol and mixed on an orbital shaker for 10 minutes to precipitate the proteins. The samples are then centrifuged at 4000 rpm and 10° C. for 30 minutes and supernatants are analysed by LCMS. The T1/2 and clearance are determined by linear regression from the peak areas.

[2] = test system: S. pyogenes (ATCC 51339); assay: Antibacterial activity MIC, S. pyogenes; assay type: cell-based; conditions: Streptococcus pyogenes, ATCC51339
[3] = test system: S. aureus (ATCC 29213); assay: Antibacterial activity MIC, S. aureus; assay type: cell-based; conditions: Staphylococcus aureus, ATCC29213
[4] = Pharmacokinetic profile, rat assay (IV); assay type: in vivo; conditions: plasma
Method: The pharmacokinetic profiles of compounds are determined by measuring the compound concentration in plasma by LC/MS/MS following a single intravenous or peroral administration of the compounds at a dose of 1 or 3 mg/kg individually or in a cassette of up to 5 compounds. The concentrations are described as the mean plasma concentrations at each time point from three animals. Intravenous dose formulation is administered as a single bolus dose through the tail vein. Oral dose formulation is administered to animals by an oral gavage needle. In both cases the dose volume is 5.0 mL/kg. Blood is collected from rats using a jugular vein catheter and from anesthetized mice through a capillary guided into the retro-orbital plexus. The collected blood is then centrifuged to obtain plasma and the compounds extracted into methanol prior to determining the compound concentration by LC/MS/MS.
The pharmacokinetic profiles of selected compounds of the invention were compared directly with their primary alcohol analogues, Compounds A and B below, in the rat assay (IV).

[5] = test system: S. pneumoniae ATCC6301; assay: Mouse survival model (lung infection); assay type: in vivo; conditions: CD-1 mice
Method: Anaesthetised female CD-1 mice (18-22 g) were inoculated intranasally with approximately 10^6 cfus of S. pneumoniae ATCC6301 prepared from a fresh overnight culture by placing 50 μl of inoculum on the nares and allowing the mice to inhale. Compounds are administered as indicated at 24, 48 and 72 hours post inoculation and the mice monitored for survival for seven or nine days after infection. […] Similarly, when Compound 17 was dosed IV at 30 mg/kg 90% of mice survived at day seven.

[6] = Thermodynamic solubility; assay type: physicochemical; conditions: aqueous buffer, thermodynamic from solid; pH 7.4, HEPES buffer, 24 hours shaking at room temperature
Method: In a 1.5 mL eppendorf tube, approximately 2 mg of compound is resuspended in a volume of HEPES buffer pH 7.4 to achieve a 5 mg/mL suspension. The tubes are placed on an orbital shaker at room temperature and following shaking for 24 hours the tubes are spun at 1400 rpm in a bench top centrifuge to pellet the undissolved compound. Duplicate 150 μL aliquots of the supernatant are then transferred into two ultracentrifuge tubes and spun at 357440 g for 4 hours at 20° C. 50 μL of the supernatant from each tube is then diluted with 100 μL of methanol and analysed by HPLC or LCMS to determine the concentration of compound in solution by comparing to a standard curve. The thermodynamic solubility of representative Compounds 19, 123, 134 and 153 were tested and determined to be highly soluble, at ≧2 mg/mL, at pH 7.4.

[7] = test system: H. influenzae (ATCC 49247); assay: Antibacterial activity MIC, H. influenzae; assay type: cell-based; conditions: Haemophilus influenzae, ATCC49247

half-life at 10 μM [1]: < 0.333 h
SMILES: CCNC(=O)Nc1nc2cc(-c3cnc([C@H](C)OC(=O)CCC(=O)O)nc3)cc(-c3ccccn3)c2s1 [Compound 133, 4-[(1S)-1-[5-[2-(ethylcarbamoylamino)-7-(2-pyridyl)-1,3-benzothiazol-5-yl]pyrimidin-2-yl]ethoxy]-4-oxo-butanoic acid]

SMILES: CCNC(=O)Nc1nc2cc(-c3cnc(C(C)(C)O)nc3)cc(-c3nccc(N4CCN(CC)CC4)n3)c2s1 [Compound 79, 1-ethyl-3-[7-[4-(4-ethylpiperazin-1-yl)pyrimidin-2-yl]-5-[2-(1-hydroxy-1-methyl-ethyl)pyrimidin-5-yl]-1,3-benzothiazol-2-yl]urea]
MIC [2]: 2 µg/mL (≈ 3.65 µM) | MIC [3]: 2 µg/mL (≈ 3.65 µM)

AUC ([4]; dose 3 mg/kg): 2000 ng·h/mL | clearance ([4]; dose 3 mg/kg): 25 mL/min/kg | half-life ([4]; dose 3 mg/kg): 1.35 h
SMILES: CCNC(=O)Nc1nc2cc(-c3cnc(CO)nc3)cc(-c3ccccn3)c2s1 [Compound A, 1-Ethyl-3-[5-[2-(hydroxymethyl)pyrimidin-5-yl]-7-(2-pyridyl)-1,3-benzothiazol-2-yl]urea, reference compound]

SMILES: CC(=O)NC[C@H]1CN(c2ccc(N3CCOCC3)c(F)c2)C(=O)O1 [Linezolid, reference compound]
survival of mice (in words) ([5]; dosed with 10 mg/kg): dead by day six

solubility thermodynamic at 24 h [6]: ≥ 2000 µg/mL
SMILES: CCNC(=O)Nc1nc2cc(-c3cnc([C@H](C)OP(=O)(O)O)nc3)cc(-c3ccccn3)c2s1 [Compound 153, [(1S)-1-[5-[2-(ethylcarbamoylamino)-7-(2-pyridyl)-1,3-benzothiazol-5-yl]pyrimidin-2-yl]ethyl]dihydrogen phosphate]

SMILES: CCNC(=O)Nc1nc2cc(-c3cnc(C(C)(C)O)nc3)cc(-c3ccccn3)c2s1 [Compound 1, 1-ethyl-3-[5-[2-(1-hydroxy-1-methyl-ethyl)pyrimidin-5-yl]-7-(2-pyridyl)-1,3-benzothiazol-2-yl]urea]
AUC ([4]; dose 1 mg/kg): 3100 ng·h/mL | clearance ([4]; dose 1 mg/kg): 4.3 mL/min/kg | half-life ([4]; dose 1 mg/kg): 3.38 h | mice surviving ([5]; dosed IV at 10 mg/kg, at seven or nine days): 80%

SMILES: CCNC(=O)Nc1nc2cc(-c3cnc(N4CCC(C)(C(=O)O)CC4)nc3)cc(-c3ccc(C(C)(C)O)cn3)c2s1 [Compound 99, 1-[5-[2-(ethylcarbamoylamino)-7-[5-(1-hydroxy-1-methyl-ethyl)-2-pyridyl]-1,3-benzothiazol-5-yl]pyrimidin-2-yl]-4-methyl-piperidine-4-carboxylic acid]
MIC [2]: ≤ 1 µg/mL | MIC [7]: ≤ 2 µg/mL | MIC [3]: 2 µg/mL (≈ 3.47 µM)

AUC ([4]; dose 3 mg/kg): 1800 ng·h/mL | clearance ([4]; dose 3 mg/kg): 28 mL/min/kg | half-life ([4]; dose 3 mg/kg): 1 h
SMILES: CCNC(=O)Nc1nc2cc(-c3ccc(CO)nc3)cc(-c3ccccn3)c2s1 [Compound B, 1-Ethyl-3-[5-[6-(hydroxymethyl)-3-pyridyl]-7-(2-pyridyl)-1,3-benzothiazol-2-yl]urea, reference compound]

half-life at 10 μM [1]: < 0.333 h | solubility thermodynamic at 24 h [6]: ≥ 2000 µg/mL
SMILES: CCNC(=O)Nc1nc2cc(-c3cnc(C(C)OC(=O)CCC(=O)O)nc3)cc(-c3ccccn3)c2s1 (stereo not shown) [Compound 19, 4-[1-[5-[2-(ethylcarbamoylamino)-7-(2-pyridyl)-1,3-benzothiazol-5-yl]pyrimidin-2-yl]ethoxy]-4-oxo-butanoic acid]

AUC ([4]; dose 1 mg/kg): 1130 ng·h/mL | clearance ([4]; dose 1 mg/kg): 13 mL/min/kg | half-life ([4]; dose 1 mg/kg): 2.63 h
SMILES: CCNC(=O)Nc1nc2cc(-c3ccc(C(C)(C)O)nc3)cc(-c3ccccn3)c2s1 [Compound 27, 1-ethyl-3-[5-[6-(1-hydroxy-1-methyl-ethyl)-3-pyridyl]-7-(2-pyridyl)-1,3-benzothiazol-2-yl]urea]

half-life at 10 μM [1]: < 0.333 h | solubility thermodynamic at 24 h [6]: ≥ 2000 µg/mL
SMILES: CCNC(=O)Nc1nc2cc(-c3cnc(C4(OC(=O)CCC(=O)O)COC4)nc3)cc(-c3ccccn3)c2s1 [Compound 123, 4-[3-[5-[2-(ethylcarbamoylamino)-7-(2-pyridyl)-1,3-benzothiazol-5-yl]pyrimidin-2-yl]oxetan-3-yl]oxy-4-oxo-butanoic acid]

half-life at 10 μM [1]: < 0.333 h | solubility thermodynamic at 24 h [6]: ≥ 2000 µg/mL
SMILES: CCNC(=O)Nc1nc2cc(-c3cnc([C@@H](C)OC(=O)CCC(=O)O)nc3)cc(-c3ccccn3)c2s1 [Compound 134, 4-[(1R)-1-[5-[2-(ethylcarbamoylamino)-7-(2-pyridyl)-1,3-benzothiazol-5-yl]pyrimidin-2-yl]ethoxy]-4-oxo-butanoic acid]

SMILES: CCNC(=O)Nc1nc2cc(-c3cnc(C(C)O)nc3)cc(-c3ccccn3)c2s1 (stereo not shown) [Compound 17, 1-ethyl-3-[5-[2-(1-hydroxyethyl)pyrimidin-5-yl]-7-(2-pyridyl)-1,3-benzothiazol-2-yl]urea]
AUC ([4]; dose 3 mg/kg): 4000 ng·h/mL | clearance ([4]; dose 3 mg/kg): 12 mL/min/kg | half-life ([4]; dose 3 mg/kg): 1.78 h | mice survived ([5]; dosed IV at 30 mg/kg, at day seven): 90%

— patent US8906902B2, “Antibacterial compounds” (Biota Europe Ltd., priority 2012, dated 2014)
